# Source: PMC11584656, “Viral sequence determines HLA-E-restricted T cell recognition of hepatitis B surface antigen” (Nature Communications, 2024)
# Read-outs that look alike come from different tables or passages of the source.
# Tests used:
# [1] = molecular target: T1, HLA-E*01:03 (Homo sapiens, UniProt P13747); format: binding; settings: for Tm (°C): Figure 1a source data, 60:1 peptide excess; for Thermal stability Tm (°C): SYPRO Orange, 22-95 °C at 1 °C/min, mean ± SD of triplicates, SD
# [2] = test system: THP-1-E cells (HLA-E*01:01) pulsed with peptide; experiment: IFN-γ ELISpot cross-reactivity screen with HLA-E binding peptides; format: cell-based, human; settings: 1 nM ImmTAV, THP-1-E cells pulsed with 10 μg/mL peptide, average of 2 HBV-naïve donor PBMC each in triplicate
# [3] = test system: THP-1-E cells (HLA-E*01:03) pulsed with peptide; experiment: as above; format: cell-based, human; settings: 1 nM ImmTAV, THP-1-E cells pulsed with 10 μg/mL peptide, average of 2 HBV-naïve donor PBMC each in triplicate
# [4] = molecular target: recombinant human HLA-E*01:03 (heavy chain with β2m), soluble, refolded; experiment: thermal shift assay (refolded pHLA-E*01:03 complexes); Tm of the same pHLA-E*01:03 complexes as in the SPR stability assay (Fig. 1c); triplicate
# [5] = molecular target: recombinant human HLA-E*01:03 (heavy chain with β2m), soluble, refolded; experiment: SPR
# [6] = molecular target: single chain β2m-HLA-E*01:01 on transduced cells
# [7] = molecular target: single chain β2m-HLA-E*01:03 on transduced cells
# [8] = test system: K562 cells transduced with single chain β2m-HLA-E*01:03; experiment: K562 cell pulsing assay, HLA-E surface upregulation (3D12, flow cytometry); format: cell-based, human
# [9] = test system: K562 cells transduced with single chain β2m-HLA-E*01:01; experiment: as above; format: cell-based, human
# [10] = molecular target: recombinant human HLA-E*01:03 (heavy chain with β2m), soluble, refolded; experiment: thermal shift assay (peptide screen)
# [11] = molecular target: T1, HLA-E*01:03; experiment: pHLA-E stability (t1/2) by SPR monitoring ILT2 binding; set-up: made in house; settings: SPR 25 °C
# [12] = molecular target: T1, HLA-E*01:03; format: binding; set-up: made in house; settings: refolded complexes
substance,measurement,setting,value
CIPIPSSWAF [HBV Env peptide 312-321],Tm (°C),[1]; replicate 1,42.2 °C
same,Tm (°C),[1]; replicate 2,41.7 °C
same,Tm (°C),[1]; replicate 3,42.2 °C
same,Thermal stability Tm (°C),[1],42.1±0.3 °C
QMRPVSRVL [Hsp60 signal peptide],HLA-E*01:01 INF-γ release (SFU ± SD),[2],43.8±6.36 SFU
same,HLA-E*01:03 INF-γ release (SFU ± SD),[3],41.8±9.9 SFU
LLPRRGPRL [HCV Core],HLA-E*01:01 INF-γ release (SFU ± SD),[2],61.1±21.8 SFU
same,HLA-E*01:03 INF-γ release (SFU ± SD),[3],60±30.1 SFU
VMAPRTLFL [Leader G],HLA-E*01:01 INF-γ release (SFU ± SD),[2],44.8±19.8 SFU
same,HLA-E*01:03 INF-γ release (SFU ± SD),[3],48.1±19.7 SFU
IMAPRTLVL [Leader A34],HLA-E*01:01 INF-γ release (SFU ± SD),[2],55.5±6.8 SFU
same,HLA-E*01:03 INF-γ release (SFU ± SD),[3],54.5±18.9 SFU
A1 signal peptide,Tm of the peptide-HLA-E complex,[4],49 °C
same,t1/2 of the peptide-HLA-E complex,[5],2 h
RWMCLRRFI [HBV Env peptide 236-244],Tm (°C),[1]; replicate 1,37.9 °C
same,Tm (°C),[1]; replicate 2,37.9 °C
same,Tm (°C),[1]; replicate 3,38.4 °C
same,Thermal stability Tm (°C),[1],38.2±0.3 °C
VMAPRTVLL [Leader B7],HLA-E*01:01 INF-γ release (SFU ± SD),[2],43.3±7.8 SFU
same,HLA-E*01:03 INF-γ release (SFU ± SD),[3],48.7±7.3 SFU
VTAPRTLLL [Leader B13],HLA-E*01:01 INF-γ release (SFU ± SD),[2],53±13.4 SFU
same,HLA-E*01:03 INF-γ release (SFU ± SD),[3],56±17.9 SFU
GMLPVCPLL [HBV Env peptide 265-273],Tm (°C),[1]; replicate 1,45.1 °C
same,Tm (°C),[1]; replicate 2,45.1 °C
same,Tm (°C),[1]; replicate 3,45.5 °C
same,Thermal stability Tm (°C),[1],45.3±0.3 °C
Cw3 signal peptide,Tm of the peptide-HLA-E complex,[4],49 °C
same,t1/2 of the peptide-HLA-E complex,[5],2 h
VMAPQALLL [Leader Cw16],HLA-E*01:01 INF-γ release (SFU ± SD),[2],33.3±16.4 SFU
same,HLA-E*01:03 INF-γ release (SFU ± SD),[3],49.1±19.2 SFU
VMAPRALLL [Leader Cw7],HLA-E*01:01 INF-γ release (SFU ± SD),[2],30.3±12.9 SFU
same,HLA-E*01:03 INF-γ release (SFU ± SD),[3],44.1±22.1 SFU
HBV Env_(371-379) (S3N) peptide …,"peptide concentration at which IFN-γ responses (ELISPOT) were detected: peptide titrated on THP-1-E*01:01 cells, PBMC, 1 nM a09b08 ImmTAV",[6],4.9 µg/mL
same,"peptide concentration at which IFN-γ responses (ELISPOT) were detected: peptide titrated on THP-1-E*01:03 cells, PBMC, 1 nM a09b08 ImmTAV",[7],0.2 µg/mL
same,Tm of the peptide-HLA-E complex,[4],47 °C
same,t1/2 of the peptide-HLA-E complex,[5],0.658 h
RLPAKAPLL [Mtb RLPA],cell surface HLA-E expression after peptide pulsing,[8],increased cell surface HLA-E expression
same,HLA-E*01:01 INF-γ release (SFU ± SD),[2],67.1±12.6 SFU
same,HLA-E*01:03 INF-γ release (SFU ± SD),[3],72.1±12.8 SFU
same,cell surface HLA-E expression after peptide pulsing,[9],increased cell surface HLA-E expression
VTAPRTVLL [Leader B15],HLA-E*01:01 INF-γ release (SFU ± SD),[2],42.8±13.4 SFU
same,HLA-E*01:03 INF-γ release (SFU ± SD),[3],40±17.4 SFU
ILQRFLPLI [Mimetic peptide 2],HLA-E*01:01 INF-γ release (SFU ± SD),[2],60.5±20.8 SFU
same,HLA-E*01:03 INF-γ release (SFU ± SD),[3],48.6±29.1 SFU
ALSWRLPLL [Mimetic peptide 1],HLA-E*01:01 INF-γ release (SFU ± SD),[2],61.6±21.8 SFU
same,HLA-E*01:03 INF-γ release (SFU ± SD),[3],54.1±15.6 SFU
HBV Env_(371-379) peptide …,"peptide concentration at which IFN-γ responses (ELISPOT) were detected: peptide titrated on THP-1-E*01:03 cells, PBMC, 1 nM a09b08 ImmTAV",[7],8.7 µg/mL
same,Tm of the peptide-HLA-E complex,[4],44 °C
same,Tm of the peptide-HLA-E complex,[10],47.1 °C
same,t1/2 of the peptide-HLA-E complex,[5],0.112 h
FIIFLFILL [HBV Env peptide 243-251],Tm (°C),[1]; replicate 1,38.9 °C
same,Tm (°C),[1]; replicate 2,39.2 °C
same,Tm (°C),[1]; replicate 3,39.5 °C
same,Thermal stability Tm (°C),[1],39.3±0.3 °C
VMPPRTLLL [Leader A80],HLA-E*01:01 INF-γ release (SFU ± SD),[2],44.8±8.6 SFU
same,HLA-E*01:03 INF-γ release (SFU ± SD),[3],61.1±14.3 SFU
VMAPRTLLL [Leader A1],pHLA-E*01:03 (t1/2 min),[11]; Run 1,105 min
same,pHLA-E*01:03 (t1/2 min),[11]; Run 2,125 min
same,pHLA-E*01:03 (t1/2 min),[11]; Run 3,127 min
same,pHLA-E*01:03 t1/2,[11]; rounded value,2 h
same,HLA-E*01:01 INF-γ release (SFU ± SD),[2],67.8±14.9 SFU
same,pHLA-E*01:03 Tm,"[12]; thermal shift assay, mean ± SD of triplicates",49 °C
same,pHLA-E*01:03 (Tm °C),[12]; first well of three,49.62 °C
same,pHLA-E*01:03 (Tm °C),[12]; second well of three,48.27 °C
same,pHLA-E*01:03 (Tm °C),[12]; third well of three,48.53 °C
same,HLA-E*01:03 INF-γ release (SFU ± SD),[3],65.6±28.4 SFU
VMAPRTLVL [Leader A2],HLA-E*01:01 INF-γ release (SFU ± SD),[2],50.5±6.8 SFU
same,HLA-E*01:03 INF-γ release (SFU ± SD),[3],64.5±9.8 SFU
ILPSDAPVL [MTB MmmpL875-83],HLA-E*01:01 INF-γ release (SFU ± SD),[2],52.6±17.39 SFU
same,HLA-E*01:03 INF-γ release (SFU ± SD),[3],54.8±17.4 SFU
SSWAFARFL [HBV Env peptide 317-325],Tm (°C),[1]; replicate 1,40.7 °C
same,Tm (°C),[1]; replicate 2,40.6 °C
same,Tm (°C),[1]; replicate 3,40.7 °C
same,Thermal stability Tm (°C),[1],40.7±0.1 °C
